In patent EP4129284B1, “SERTACONAZOL FOR PROVIDING A SPORISTATIC AND/OR SPORICIDAL EFFECT” (Dr. Pfleger Arzneimittel GmbH, priority 2021, dated 2023):

How the values were obtained:
Assay type in all cases: cell-based, human
IL-1α = system: IL-1α
Method: (§1) Additionally, the influence on the cell viability and the release of lactate dehydrogenase (LDH) was examined over the incubation time. Disruptions of the cell membranes can be measured by the release of the cytosolic enzyme LDH and be evaluated as a marker for cellular necrosis. As the biocompatibility of the material is determined by further cellular and molecular factors, the analysis of the cellular interleukin release allows the conclusion on e.g. pro-inflammatory effects of the substances, which would not be possible to be detected by sole cytotoxicity. Such interleukins are interleukins 1α, 6 or 8, which are involved in coordinating the cellular proliferation, cell migration and possible inflammatory processes. Such a method is described in, for example, Wiegand C, Hipler UC. Evaluation of biocompatibility and cytotoxicity using keratinocyte and fibroblast cultures. Skin Pharmacol Physiol 2009; 22:74-82; Wiegand C, Winter D, Hipler UC. Molecular-weight-dependent toxic effects of chitosans on the human keratinocyte cell line HaCaT. Skin Pharmacol Physiol. 2010;23(3):164-70.
(§2) The spore suspensions and the solutions of sertaconazol, ciclopiroxolamin and terbinafin were prepared as in Example 1, wherein the respective test concentrations were obtained by diluting these solutions in ultrapure water (WFI; Fresenius Kabi) instead of SGB (Merck). Full skin models were produced as previously described [Reddersen K, Wiegand C, Elsner P, Hipler UC. Three-dimensional human skin model infected with Staphylococcus aureus as a tool for evaluation of bioactivity and biocompatibility of antiseptics. Int J Antimicrob Agents. 2019; 54(3):283-291; Wiegand C, Fink S, Beier O, Horn K, Pfuch A, Schimanski A, Grünler B, Hipler UC, Elsner P. Dose- and Time-Dependent Cellular Effects of Cold Atmospheric Pressure Plasma Evaluated in 3D Skin Models. Skin Pharmacol Physiol. 2016;29(5):257-265].Particularly, normal human dermal fibroblasts (NHDF; Lot 1060702.1, Promocell) and normal human epidermal keratinocytes (NHEK; Lot 9100102, Promocell) were used. Fibroblasts were cultivated in Dulbecco's modified eagle medium (DMEM; Lot MC09049P, Amimed), with 2% foetal calf serum (Lot P160509; PAN), 5 ng/mL hFGF (Lot 0329586; novoprotein) and 5 µg/ml Insulin (Lot H07443P, AMIMED) at 37°C and a 5% CO2 atmosphere. Keratinocytes were cultivated in keratinocyte medium (KBM, Lot 446M063, Promocell) at 37°C and a 5% CO2 atmosphere. The cultivation was performed over 7 days in 75 cm^2 cell culture flasks (Greiner Bio-One). The cells were subsequently detached with Trypsin-EDTA (Lot 2091326; Gibco) and dissolved in the respective medium. For producing the dermis equivalent, fibroblasts were cultivated in 12-well inserts (Greiner bio-one) with DMEM (Lot MC09049P, Amimed) + 10% foetal calf serum (Lot P160509, PAN) + 1% Gentamycin (Lot 2027100, Gibco) + 150 µg/ml ascorbic acid (Lot BCBS1081V, Sigma) for 3 weeks at […] and 5 % CO2. The medium was changed all 2-3 days. Before seeding the keratinocytes for producing the […], the medium surrounding the insert was completely removed and the dermis upper layer was coated with fibronectin (50 µg/mL; Lot 435P078, Promocell). After 30 min of incubation of the dermis equivalent with fibronectin, the seeding of the keratinocytes was performed with 2 × 10^5 cells / insert in KBM (Lot 446M063, Promocell) + 5% FKS (Lot P160509, PAN) + 1% Gentamycin (Lot 2027100, Gibco). Subsequently, the skin models were incubated for 45 min in the incubator before the models were flooded with KBM + 5% FKS + 1% Gentamycin. The skin models were cultivated for 7 days by submersion in the medium with decreasing foetal calf serum concentration (5 %, 2 %, 0 %). The medium was changed all 2-3 days. After the cultivation by submersion, the skin models were further cultivated for 12 days at the air-medium interface (airlift cultivation). […]

IL-6 = system: IL-6
Method: as §1, §2

IL-8 = system: IL-8
Method: as §1, §2

Compound	secretion of IL-1α (IL-1α)	release of IL-6 (IL-6)	release of IL-8 (IL-8)
Cc1cc(C2CCCCC2)n(O)c(=O)c1 [Ciclopiroxolamin, ciclopiroxolamin]	no significant secretion	–	–
Clc1ccc(C(Cn2ccnc2)OCc2csc3c(Cl)cccc23)c(Cl)c1 (stereo not shown) [Sertaconazol, sertaconazol]	–	does not induce the release	does not induce the release
CN(C/C=C/C#CC(C)(C)C)Cc1cccc2ccccc12 [Terbinafin, terbinafin]	no significant secretion	–	–
